{"source": "ChEMBL document CHEMBL5107965", "about": "“The progress of small-molecules and degraders against BCR-ABL for the treatment of CML” (Eur J Med Chem, 2022)", "key": {"[1]": {"molecular_target": "Platelet-derived growth factor receptor beta (Homo sapiens, UniProt P09619)", "sequence (P09619 whole entry)": "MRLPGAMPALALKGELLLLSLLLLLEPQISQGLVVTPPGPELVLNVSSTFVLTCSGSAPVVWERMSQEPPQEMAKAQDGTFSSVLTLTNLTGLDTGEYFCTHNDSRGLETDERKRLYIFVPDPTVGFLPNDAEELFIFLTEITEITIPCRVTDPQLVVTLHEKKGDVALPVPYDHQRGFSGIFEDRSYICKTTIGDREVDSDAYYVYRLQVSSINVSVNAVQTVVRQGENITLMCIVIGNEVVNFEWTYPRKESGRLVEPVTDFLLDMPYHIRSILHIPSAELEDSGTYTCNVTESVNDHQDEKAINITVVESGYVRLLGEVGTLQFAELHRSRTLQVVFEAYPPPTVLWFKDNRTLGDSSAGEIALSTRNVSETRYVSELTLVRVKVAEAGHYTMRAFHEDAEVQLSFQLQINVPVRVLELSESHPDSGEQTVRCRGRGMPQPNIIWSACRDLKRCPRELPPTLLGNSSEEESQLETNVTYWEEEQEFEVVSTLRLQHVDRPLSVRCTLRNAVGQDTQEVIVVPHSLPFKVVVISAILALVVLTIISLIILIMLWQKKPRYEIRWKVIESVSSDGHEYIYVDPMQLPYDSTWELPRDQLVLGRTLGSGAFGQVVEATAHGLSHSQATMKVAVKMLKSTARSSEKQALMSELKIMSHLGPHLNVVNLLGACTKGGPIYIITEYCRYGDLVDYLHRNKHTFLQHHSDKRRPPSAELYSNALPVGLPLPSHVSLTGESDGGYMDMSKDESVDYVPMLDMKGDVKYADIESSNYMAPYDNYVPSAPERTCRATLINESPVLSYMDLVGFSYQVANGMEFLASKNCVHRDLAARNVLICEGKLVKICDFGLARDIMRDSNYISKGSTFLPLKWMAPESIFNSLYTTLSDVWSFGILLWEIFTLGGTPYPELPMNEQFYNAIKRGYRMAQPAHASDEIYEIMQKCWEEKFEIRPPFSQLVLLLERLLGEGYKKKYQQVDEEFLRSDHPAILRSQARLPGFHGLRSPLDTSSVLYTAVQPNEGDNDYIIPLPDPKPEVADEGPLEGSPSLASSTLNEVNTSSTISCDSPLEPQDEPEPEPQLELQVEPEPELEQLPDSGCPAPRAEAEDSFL", "test": "Inhibition of PDGFRbeta (unknown origin)"}, "[2]": {"molecular_target": "Mast/stem cell growth factor receptor Kit (Homo sapiens, UniProt P10721)", "sequence (P10721 whole entry)": "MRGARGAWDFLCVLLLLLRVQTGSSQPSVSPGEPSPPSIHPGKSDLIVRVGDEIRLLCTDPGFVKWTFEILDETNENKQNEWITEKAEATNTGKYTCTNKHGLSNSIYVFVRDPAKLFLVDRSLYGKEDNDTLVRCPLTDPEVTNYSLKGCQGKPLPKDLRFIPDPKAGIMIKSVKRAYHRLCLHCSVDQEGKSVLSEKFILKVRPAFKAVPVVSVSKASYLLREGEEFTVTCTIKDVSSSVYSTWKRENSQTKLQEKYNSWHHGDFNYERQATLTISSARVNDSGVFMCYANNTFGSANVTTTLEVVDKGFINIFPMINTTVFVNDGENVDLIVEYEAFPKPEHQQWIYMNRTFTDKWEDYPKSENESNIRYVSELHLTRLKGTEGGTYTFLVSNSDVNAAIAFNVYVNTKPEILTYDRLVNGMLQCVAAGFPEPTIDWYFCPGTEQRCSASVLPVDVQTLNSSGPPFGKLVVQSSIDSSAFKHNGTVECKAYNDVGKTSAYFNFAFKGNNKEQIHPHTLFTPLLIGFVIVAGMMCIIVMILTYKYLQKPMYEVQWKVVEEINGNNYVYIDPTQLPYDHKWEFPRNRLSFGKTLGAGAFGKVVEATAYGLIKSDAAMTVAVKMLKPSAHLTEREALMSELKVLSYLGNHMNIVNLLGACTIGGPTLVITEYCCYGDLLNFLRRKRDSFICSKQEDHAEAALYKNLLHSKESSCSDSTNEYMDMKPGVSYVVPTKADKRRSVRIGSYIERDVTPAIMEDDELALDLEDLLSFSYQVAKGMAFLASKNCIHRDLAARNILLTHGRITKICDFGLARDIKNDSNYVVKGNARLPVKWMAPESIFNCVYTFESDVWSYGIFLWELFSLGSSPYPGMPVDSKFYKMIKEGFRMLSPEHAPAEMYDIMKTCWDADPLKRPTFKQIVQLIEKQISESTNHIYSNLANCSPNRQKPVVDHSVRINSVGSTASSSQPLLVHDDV", "test": "Inhibition of c-Kit (unknown origin)"}, "K562 [3]": {"system": "K562", "test": "Antiproliferative activity against imatinib resistant human K562 cells assessed as cell growth inhibition measured after 48 to 72 hrs by MTS assay", "format": "functional, cell-based"}, "K562 [4]": {"system": "K562", "test": "Antiproliferative activity against imatinib resistant human K562 cells harbouring ABL-T315I mutant assessed as cell growth inhibition by XTT assay", "format": "functional"}, "K562 [5]": {"system": "K562", "test": "Antiproliferative activity against imatinib resistant human K562 cells harbouring wild type ABL assessed as cell growth inhibition by XTT assay", "format": "functional"}, "K562 [6]": {"system": "K562", "test": "Antiproliferative activity against human K562 cells assessed as cell growth inhibition", "format": "functional, cell-based"}, "Bcr/Abl fusion protein [7]": {"molecular_target": "T1, Bcr/Abl fusion protein (Homo sapiens, UniProt P00519)", "test": "Inhibition of BCR-ABL (unknown origin)", "format": "protein assay"}, "[8]": {"test": "Inhibition of Abl […] mutant (unknown origin)", "design": "species or system Homo sapiens"}, "BaF3": {"system": "BaF3", "test": "cells", "settings": "Mus musculus"}, "K562 [9]": {"system": "K562", "test": "Cytotoxicity against human K562 cells assessed as cell growth inhibition measured after 72 hrs by MTT assay", "format": "functional, cell-based", "settings": "K562, 72 h"}, "BCR/ABL1 [10]": {"molecular_target": "BCR/ABL1 (Mus musculus, UniProt P00520, E255V)", "sequence (P00520 whole entry E255V, looked up)": "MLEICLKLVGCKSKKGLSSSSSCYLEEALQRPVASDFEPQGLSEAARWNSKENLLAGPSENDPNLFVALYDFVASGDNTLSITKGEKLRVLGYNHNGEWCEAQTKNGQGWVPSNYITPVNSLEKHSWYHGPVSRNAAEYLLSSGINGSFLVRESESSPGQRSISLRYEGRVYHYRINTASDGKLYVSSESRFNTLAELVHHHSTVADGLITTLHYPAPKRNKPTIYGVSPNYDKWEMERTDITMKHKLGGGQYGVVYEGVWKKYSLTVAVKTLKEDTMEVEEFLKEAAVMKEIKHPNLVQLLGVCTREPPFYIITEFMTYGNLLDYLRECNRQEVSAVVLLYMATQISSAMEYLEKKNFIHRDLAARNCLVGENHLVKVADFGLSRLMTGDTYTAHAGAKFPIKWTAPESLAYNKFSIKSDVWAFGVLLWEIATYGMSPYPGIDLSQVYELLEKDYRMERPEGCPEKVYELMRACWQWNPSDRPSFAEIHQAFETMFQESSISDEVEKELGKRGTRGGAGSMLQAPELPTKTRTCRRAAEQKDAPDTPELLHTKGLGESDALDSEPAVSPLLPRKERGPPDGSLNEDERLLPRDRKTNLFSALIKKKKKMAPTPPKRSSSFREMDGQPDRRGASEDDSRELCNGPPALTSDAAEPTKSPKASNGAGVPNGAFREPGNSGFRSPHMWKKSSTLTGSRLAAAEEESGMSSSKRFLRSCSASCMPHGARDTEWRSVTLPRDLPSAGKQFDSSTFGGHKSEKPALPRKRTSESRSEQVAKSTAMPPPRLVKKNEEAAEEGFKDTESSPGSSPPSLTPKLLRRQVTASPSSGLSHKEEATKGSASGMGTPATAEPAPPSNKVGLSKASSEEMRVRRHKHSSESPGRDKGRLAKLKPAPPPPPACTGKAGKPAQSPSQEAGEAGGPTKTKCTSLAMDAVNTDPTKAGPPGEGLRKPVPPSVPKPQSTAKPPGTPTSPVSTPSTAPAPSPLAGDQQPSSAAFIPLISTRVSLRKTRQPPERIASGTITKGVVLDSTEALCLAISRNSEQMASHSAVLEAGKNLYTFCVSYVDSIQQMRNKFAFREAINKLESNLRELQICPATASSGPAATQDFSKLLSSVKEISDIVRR", "test": "Inhibition of BCR-ABL E255V mutant phosphorylation in mouse BaF3 cells incubated for 4 hrs by immunoblotting analysis", "format": "cell-based"}, "[11]": {"test": "Ratio of drug concentration in brain to plasma of mouse at 30 mg/kg, measured after 1 hr", "format": "ADME, organism-based", "settings": "read-out: BPR"}, "[12]": {"test": "Inhibition of BCR-ABL L248R mutant phosphorylation in mouse BaF3 cells incubated for 4 hrs by immunoblotting analysis", "format": "cell-based", "settings": "BaF3, 4 h"}, "Bcr/Abl fusion protein [13]": {"molecular_target": "T1, Bcr/Abl fusion protein", "test": "Inhibition of wild type BCR-ABL phosphorylation in mouse BaF3 cells incubated for 4 hrs by immunoblotting analysis", "format": "cell-based"}, "BCR/ABL1 [14]": {"molecular_target": "BCR/ABL1 (Mus musculus, UniProt P00520, T315I)", "sequence (P00520 whole entry T315I, looked up)": "as the sequence (P00520 whole entry E255V, looked up) above, with V255E, T315I counted along it", "test": "Inhibition of BCR-ABL T315I mutant phosphorylation in mouse BaF3 cells incubated for 4 hrs by immunoblotting analysis", "format": "cell-based"}, "[15]": {"test": "Plasma concentration in mouse at 30 mg/kg, measured after 1 hr", "format": "ADME, organism-based"}, "[16]": {"test": "Inhibition of BCR-ABL Y253H mutant phosphorylation in mouse BaF3 cells incubated for 4 hrs by immunoblotting analysis", "format": "cell-based", "settings": "BaF3, 4 h"}, "[17]": {"test": "Drug concentration in brain of mouse at 30 mg/kg, measured after 1 hr", "format": "ADME, organism-based", "settings": "read-out: Ct"}, "[18]": {"molecular_target": "Tyrosine-protein kinase ABL1 (Homo sapiens, UniProt P00519, T315I)", "test": "Inhibition of Abl T315I mutant (unknown origin)"}, "K562 [19]": {"system": "K562", "test": "Antiproliferative activity against imatinib resistant human K562 cells expressing STAT5 assessed as cell growth inhibition", "format": "functional, cell-based"}, "[20]": {"molecular_target": "Tyrosine-protein kinase ABL1 (Homo sapiens, UniProt P00519)", "description": "Inhibition of wild type Abl (unknown origin)"}, "K562 [21]": {"system": "K562", "test": "Antiproliferative activity against imatinib resistant human K562 cells expressing BCR-ABL assessed as cell growth inhibition", "format": "functional, cell-based"}, "Aurora kinase A": {"molecular_target": "T2, Aurora kinase A (Homo sapiens, UniProt O14965)", "T2 sequence (O14965 whole entry)": "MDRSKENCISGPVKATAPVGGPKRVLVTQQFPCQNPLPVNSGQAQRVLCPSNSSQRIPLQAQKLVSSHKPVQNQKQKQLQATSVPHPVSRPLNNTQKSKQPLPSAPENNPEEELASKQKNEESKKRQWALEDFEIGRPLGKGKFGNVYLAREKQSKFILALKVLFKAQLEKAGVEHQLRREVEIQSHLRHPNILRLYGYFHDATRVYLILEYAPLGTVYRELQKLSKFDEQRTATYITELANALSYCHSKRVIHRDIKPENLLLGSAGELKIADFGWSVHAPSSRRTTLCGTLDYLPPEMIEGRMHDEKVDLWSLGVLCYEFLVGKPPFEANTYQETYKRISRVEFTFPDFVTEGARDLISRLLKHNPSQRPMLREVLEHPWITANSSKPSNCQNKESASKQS", "test": "Inhibition of Aurora A (unknown origin)"}}, "data": [{"molecule": "Cc1ncc(NC(=O)c2ccc(CN3CCN(C)CC3)c(C(F)(F)F)c2)cc1Nc1nccc(-c2cccnc2)n1", "note": "[FLUMATINIB]", "values": [{"measurement": "IC50", "setting": "[1]", "result": 308, "unit": "nM"}, {"measurement": "IC50", "setting": "[2]", "result": 666, "unit": "nM"}]}, {"molecule": "CC(C)=CCC[C@]1(C)C=Cc2c(O)c3c(c(CC=C(C)C)c2O1)O[C@]12C(=C[C@@H]4C[C@H]1C(C)(C)O[C@@]2(C/C=C(/C)C(=O)O)C4=O)C3=O", "note": "[GAMBOGIC ACID]", "values": [{"measurement": "IC50", "setting": "K562 [3]", "result": 620, "unit": "nM"}]}, {"molecule": "O=C(c1ccc(/C=C/c2n[nH]c3ccccc23)cc1)N1CCNCC1", "note": "[KW-2449]", "values": [{"measurement": "GI50", "setting": "K562 [4]", "result": 270, "unit": "nM"}, {"measurement": "GI50", "setting": "K562 [5]", "result": 270, "unit": "nM"}]}, {"molecule": "COC(=O)C[C@](O)(CCCC(C)(C)O)C(=O)O[C@@H]1C(OC)=C[C@]23CCCN2CCc2cc4c(cc2[C@H]13)OCO4", "note": "[OMACETAXINE MEPESUCCINATE]", "values": [{"measurement": "IC50", "setting": "K562 [6]", "result": 0.0439, "unit": "µg/mL"}]}, {"molecule": "Cc1cn(-c2cc(NC(=O)c3ccc(C)c(Nc4nccc(-c5cnccn5)n4)c3)cc(C(F)(F)F)c2)cn1", "note": "[RADOTINIB]", "values": [{"measurement": "IC50", "setting": "Bcr/Abl fusion protein [7]", "result": 1.2, "unit": "nM"}]}, {"molecule": "CNC(=O)c1cc(Oc2ccc(NC(=O)Nc3cc(C(C)(C)C)nn3-c3ccc4ncccc4c3)c(F)c2)ccn1", "note": "[REBASTINIB]", "values": [{"measurement": "IC50", "setting": "[8]", "result": 1.4, "unit": "nM"}]}, {"molecule": "Cc1cc(Nc2cc(N3CCN(C)CC3)nc(Sc3ccc(NC(=O)C4CC4)cc3)n2)n[nH]1", "note": "[TOZASERTIB]", "values": [{"measurement": "IC50", "setting": "BaF3", "result": 100, "unit": "nM"}]}, {"molecule": "Cc1ccc(C(=O)Nc2ccc(CN3CCN(C)CC3)c(C(F)(F)F)c2)cc1C#Cc1nnc2ccccn12", "note": "[VAMOTINIB]", "values": [{"measurement": "IC50", "setting": "K562 [9]", "result": 1, "unit": "nM"}]}, {"molecule": "Cc1ccc(C(=O)NNC(=O)c2c(C)cccc2Cl)cc1C#Cc1cnc2ccccc2c1", "note": "[VODOBATINIB]", "values": [{"measurement": "IC50", "setting": "BCR/ABL1 [10]", "result": 165, "unit": "nM"}, {"measurement": "Kp at 1 h", "setting": "[11]", "result": 0.4}, {"measurement": "IC50", "setting": "[12]", "result": 167, "unit": "nM"}, {"measurement": "IC50", "setting": "Bcr/Abl fusion protein [13]", "result": 0.9, "unit": "nM"}, {"measurement": "IC50", "setting": "BCR/ABL1 [14]", "result": 1970, "unit": "nM"}, {"measurement": "concentration at 1 h", "setting": "[15]", "result": 4800, "unit": "ng/mL"}, {"measurement": "IC50", "setting": "[16]", "result": 154, "unit": "nM"}, {"measurement": "concentration at 1 h", "setting": "[17]", "result": 1900, "unit": "ng/g"}]}, {"molecule": "CC(C)c1cc(CNc2nc(Nc3cc(C4CC4)[nH]n3)cc(N3CCN(C)CC3)n2)on1", "note": "[XL-228]", "values": [{"measurement": "IC50", "setting": "[18]", "result": 14, "unit": "nM"}, {"measurement": "IC50", "setting": "K562 [19]", "result": 43, "unit": "nM"}, {"measurement": "IC50", "setting": "[20]", "result": 5, "unit": "nM"}, {"measurement": "IC50", "setting": "K562 [21]", "result": 33, "unit": "nM"}, {"measurement": "IC50", "setting": "Aurora kinase A", "result": 3.1, "unit": "nM"}]}]}
